Experimental data published in PMC9413491, “A Novel and Cross-Species Active Mammalian INDY (NaCT) Inhibitor Ameliorates Hepatic Steatosis in Mice with Diet-Induced Obesity” (Metabolites, 2022).
pIC50: −log10 of the molar value.

Tests used:
DIO mice [1] = experiment: Short-term tolerability studies in the DIO mouse model; format: in vivo
Text: Next, we tested the functional activity of ETG-5773 in vivo to establish whether the effects on in vitro citrate uptake and FAS were physiologically relevant. […] Therefore, we applied pair-fed control groups to explore the pharmacological actions on metabolism without interference from food-intake effects.
[…] […] The potential for off-target effects on feeding behaviour provided the rational for including pair-fed control groups.

DIO mice [2] = experiment: 28-day treatment of diet-induced obesity (DIO) mice; format: in vivo, mouse
Experimental: We performed in vivo testing in DIO mice (for 7- and 28-day treatment), an established model designed to study high-fat-diet-induced hepatic steatosis and associated cardiometabolic traits. We established DIO in four-week-old C57BL/6N male mice that were fed a high-fat diet (HFD, 60 kcal% fat, D12492; Research Diets, Inc.; New Brunswick, NJ, USA) until 11 weeks of age.
Mice were housed at a temperature of 22–24 °C, with a day/night cycle of 12/12 h (07:00-19:00–07:00) and had access to the appropriate diet and tap water ad libitum. Animals allocated to the pair-feeding group were fed the same amount of food as the corresponding treatment group had consumed the day before. Food was only withdrawn for overnight fasting on the penultimate study day before the section on the final day. We randomised groups of n = 12 for treatment and n = 8 for pair-feeding cage-wise according to random fed blood glucose levels and body weight before the study treatment was started. For all animals, the high-fat diet was started at the same age.
We treated DIO mice with the inhibitor or corresponding vehicle (5% DMSO/10% Cremophor® EL/85% water) twice a day at the same time by oral gavage according to their grouping (5, 15, and 50 mg/kg dose groups, and vehicle control groups). During the study, we measured body weight and blood glucose. We measured glucose concentrations in tail tip blood samples with the “Accu-Chek® Performa” glucometer (Roche, Basel, Switzerland, range <33.3 mmol/L). We determined random fed blood glucose and fasting blood glucose after overnight fasting.
An intraperitoneal glucose tolerance test was performed after an overnight fasting period. Mice were injected with 1g/kg glucose and blood glucose was measured over a period of 180 min.
At the end of study day 28, we obtained blood and liver samples. In anesthetised animals, we collected retro-orbital blood samples in non-coated tubes (Sarstedt, Inc., Nümbrecht, Germany). Then, we sacrificed animals by cervical dislocation. We dissected and weighed the livers and immediately froze liver samples in liquid nitrogen for further analysis.
For serum sample generation, we centrifuged blood at 4000× g for 10 min and dispensed serum samples into a 110 µL plus an additional aliquot. Samples were stored at −80 °C. For Piccolo® system (Abaxis, Inc., Union City, CA, USA) analysis (lipid panel including triglycerides and cholesterol), we used a 110 µL serum aliquot.
The frozen tissue from liver samples were used to determine the triglyceride content via triglyceride assay according to the manufacturer’s protocol (Sigma-Aldrich, Cat.No.TR0100) using glycerol as a standard (Sigma-Aldrich, Glycerol G7793, St. Louis, MO, USA).
We determined body composition in mice using the non-invasive Bruker Minispec Instrument MQ 10 NMR Analyser (Bruker, Billerica, MA, USA). We placed mice in a clear, plastic cylinder and kept them immobile by inserting a tight-fitting plunger into the cylinder. For scanning, the tube was placed in the sample chamber for approximately one minute. Body composition was calculated and related to whole body weight.
We isolated total RNA from individual liver samples from all animals in 1.5 mL Trizol reagent (Life Technologies, Carlsbad, CA, USA) at 4 °C according to the manufacturer’s instructions. Then, we purified total RNA utilising the RNeasy Mini Kit (Qiagen, Hilden, Germany) with DNase-treatment to completely remove genomic DNA according to the instructions of the manufacturer. Subsequently, RNA was reverse transcribed using Superscript II RnaseH Reverse Transcriptase (Life Technologies) and subjected to Taqman analysis using the Taqman Fast Advanced Master Mix (Applied Biosystems, Weiterstadt, Germany). The Mix contains AmpliTaq® Fast DNA Polymerase, AmpErase UNG, dNTPs with dUTP, passive reference Rox and optimised buffer components. Quantitative PCR was performed in the Quantstudio 7 Flex System (Applied Biosystems, Weiterstadt, Germany). […]

DIO mice [3] = experiment: 7-day treatment of diet-induced obesity (DIO) mice; format: in vivo, mouse; settings: 15 mg/kg twice daily, 7 days, p < 0.001 pair-fed, p < 0.05 vehicle
human NaCT = target: T1, human NaCT (Homo sapiens, UniProt Q86YT5); experiment: [14C] citrate uptake in HepG2 cells endogenously expressing human NaCT; format: cell-based
T1 construct: citrate uptake into HepG2 cells, which endogenously expressed NaCT; host or cells: HepG2
Text: We determined activity on human NaCT by measuring citrate uptake into HepG2 cells, which endogenously expressed NaCT [37] and for mouse Nact, using HEK293 cells recombinantly expressing mouse Nact (HEK-Nact). We cloned the mouse Slc13a5 cDNA encoding Nact as described previously.
For radiometric [14C] citrate uptake assays, we used Cytostar-T plates (Perkin Elmer#RPNQ0166, Waltham, MA, USA). For each assay, we seeded 20,000 HepG2 cells per well on collagen coated 384-well Cytostar-T plates or 5000 HEK293 cells per well on ploy-D-lysine coated 384-well Cytostar-T plates. On the following day, we changed culture medium to assay buffer: 120 mM NaCl, 5.4 mM KCl, 0.8 mM MgSO4, 5 mM glucose, 1.8 mM CaCl2, 25 mM Hepes, 25 mM MES, pH 6.5 (human) and pH 7.5 (mouse). We preincubated cells with compounds at 37 °C for 20 min, after which we added [14C] citrate (3 µM for HEK cells and 10 µM for HepG2 cells) and incubated cells for 50 min at 37 °C. After cooling down for 15 min at 4 °C, we measured the counts using a Microbeta2 reader system (Perkin Elmer).

[4] = 15 mg/kg oral twice daily, 28 days
[5] = 15 mg/kg oral twice daily, 28 days, p < 0.001
[6] = 15 mg/kg oral twice daily, 28 days, p < 0.01
[7] = 15 mg/kg oral twice daily, 28 days, p < 0.05

T1 sequence (Q86YT5 whole entry): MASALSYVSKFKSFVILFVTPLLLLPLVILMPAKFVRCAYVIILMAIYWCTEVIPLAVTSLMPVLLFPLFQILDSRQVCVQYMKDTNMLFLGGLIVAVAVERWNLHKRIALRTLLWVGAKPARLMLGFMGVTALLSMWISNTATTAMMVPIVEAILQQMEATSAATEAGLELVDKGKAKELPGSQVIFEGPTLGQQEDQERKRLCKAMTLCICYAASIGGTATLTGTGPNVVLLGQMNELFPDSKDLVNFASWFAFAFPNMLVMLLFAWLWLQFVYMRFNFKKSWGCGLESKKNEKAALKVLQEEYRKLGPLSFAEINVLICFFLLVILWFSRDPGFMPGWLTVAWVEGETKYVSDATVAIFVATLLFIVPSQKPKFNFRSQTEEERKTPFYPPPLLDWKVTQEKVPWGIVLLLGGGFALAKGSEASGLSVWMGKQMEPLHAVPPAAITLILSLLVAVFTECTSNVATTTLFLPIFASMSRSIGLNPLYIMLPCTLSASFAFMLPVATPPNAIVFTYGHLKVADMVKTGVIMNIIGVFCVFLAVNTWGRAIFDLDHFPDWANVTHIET

SMILES: O=C(Nc1cc(Cl)cc(C(F)(F)F)c1)OCCC(F)(F)F [ETG-5773]
- Tolerability of the selected dose (DIO mice [1]; 15 mg/kg twice daily): well tolerated
- Food intake (DIO mice [1]; preliminary short-term tolerability studies, DIO mouse model): reduced food intake
- Glucose excursion AUC (IPGTT) vs pair-fed control (DIO mice [2]; 15 mg/kg oral twice daily): not significant
- Glucose tolerance (IPGTT) vs vehicle control and pair-fed group (DIO mice [2]; 15 mg/kg oral twice daily, 1 g/kg glucose i.p., all p < 0.05): significantly improved glucose tolerance
- Plasma cholesterol concentrations (DIO mice [2]; [4]): no effect
- Plasma triglyceride concentrations vs vehicle (DIO mice [2]; [4]): though not compared to the vehicle
- Reduction in fasting insulin vs pair-fed (DIO mice [2]; 15 mg/kg oral twice daily, 28 days, non-significant p = 0.2): 70%
- Reduction in body weight vs vehicle group (DIO mice [2]; 15 mg/kg oral twice daily, 28 days, p < 0.0001): 19%
- Reduction in fasting blood glucose vs pair-fed (DIO mice [2]; [5]): 25%
- Reduction in hepatic triglyceride content vs pair-fed (DIO mice [2]; [5]): 25%
- Plasma triglyceride concentrations vs pair-fed (DIO mice [2]; [6]): slightly increased
- Reduction in body weight vs pair-fed group (DIO mice [2]; [6]): 14%
- Decrease in fasting blood glucose vs vehicle (DIO mice [2]; [7]): 17%
- Reduction in fasting insulin vs vehicle (DIO mice [2]; [7]): 75%
- Glucose excursion AUC (IPGTT) vs vehicle control (DIO mice [2]; 15 mg/kg oral twice daily, p < 0.05): significantly reduced
- Hepatic Fasn mRNA vs pair-fed group (DIO mice [2]; 15 mg/kg twice daily, 28 days, p 0.09): trend for reduction
- Hepatic Srebf1 mRNA vs vehicle control and pair-fed (DIO mice [2]; 15 mg/kg twice daily, 28 days, p < 0.0001): significantly downregulated
- Hepatic Scd1 mRNA vs vehicle control and pair-fed (DIO mice [2]; 15 mg/kg twice daily, 28 days, p < 0.0001 vehicle, p < 0.001 pair-fed): significantly downregulated
- Hepatic Acly mRNA vs vehicle control and pair-fed (DIO mice [2]; 15 mg/kg twice daily, 28 days, p < 0.001 vehicle, p < 0.01 pair-fed): significantly downregulated
- Hepatic Fasn mRNA vs vehicle control (DIO mice [2]; 15 mg/kg twice daily, 28 days, p < 0.01): significantly downregulated
- Hepatic Acc1 mRNA vs vehicle control (DIO mice [2]; 15 mg/kg twice daily, 28 days, p < 0.05): significantly downregulated
- Hepatic Acc1 mRNA vs pair-fed group (DIO mice [2]; 15 mg/kg twice daily, 28 days, p < 0.1): trend for reduction
- Body fat as percentage of body weight vs vehicle and pair-fed (DIO mice [2]; 15 mg/kg twice daily, day 22): significant decrease
- Lean mass as percentage of body weight vs vehicle and pair-fed (DIO mice [2]; 15 mg/kg twice daily, day 22): significant increase
- Fat mass (NMR) vs vehicle control and pair-fed group (DIO mice [2]; 15 mg/kg twice daily, day 22, p < 0.0001 vs vehicle, p < 0.01 vs pair-fed): markedly reduced
- Lean mass (NMR) vs vehicle control (DIO mice [2]; 15 mg/kg twice daily, day 22, p < 0.01, not significant vs pair-fed): significantly lower
- Plasma β-hydroxybutyrate (β-HBA) concentrations vs pair-fed and vehicle (DIO mice [3]): significantly increased
- In vitro activity relative to PF-06649298 (human NaCT; ETG-5773 more active than PF-06649298): more than 100 fold
- pIC50 (human NaCT; HepG2, human NaCT, citrate substrate): 6.80
